Experimental data taken from patent US20120093752A1, “Use of Monoamine Oxidase Inhibitors to Improve Epithelial Biology” (priority 2010, published 2012).
Entries after “also recorded” stand apart in the source; their conditions may differ. Where a name gives a salt, the structure may show the parent alone.

Columns and labels:
follicles in telogen [1] = test: Telogen Conversion Assay (TCA), visual melanogenesis grade as indicator of hair growth; type: in vivo, C57Bl/6 mice; details: topical; for hair growth induction in vivo (FIG. 1): compound alone; for hair growth induction in vivo (FIG. 1) / Activity (improved hair growth by inducing anagen): 19 days, C57Bl/6 mice; for timing of hair growth induction: C57BL/6 mice, selegiline 1% or Triac 0.06%, 32 days, FIG. 2
Method: The skin color of mice subjected to treatment is graded visually on a scale from zero to four (0=white skin; 1=light gray skin; 2=blue/black spots; 3=large blue/black region; 4=mostly blue/black skin). As a subject transitions from telogen to anagen, the skin color becomes darker.
Triac (0.06%) was administered as a positive control. Animals were scored for hair growth on the basis of melanogenesis during the treatment period.

MAOB = MAOB production in mice administered hair growth modulators; type: in vivo
follicles in telogen [2] = test: Hair growth induction (visual melanogenesis grades) in C3H mice; type: in vivo; details: topical, selegiline 1% or Triac 0.06%, 32 days
Method: Several MAO inhibitors were tested for the ability to improve hair growth using the Telogen Conversion Assay (TCA) described in, e.g., International Patent Publication No. 2000/73265. […] The skin color of mice subjected to treatment is graded visually on a scale from zero to four (0=white skin; 1=light gray skin; 2=blue/black spots; 3=large blue/black region; 4=mostly blue/black skin). As a subject transitions from telogen to anagen, the skin color becomes darker.
The potential of selegiline to induce hair growth in different mouse strains also was studied. Selegiline (1%) was topically administered to a C3H mice and C57BL/6 mice. Triac (0.06%) was used as a positive control. […] Both strains of mice also responded to the MAO inhibitor; however, the strains responded in a manner consistent with natural inter-strain differences in transitioning to anagen. The telogen phase in C3H mice is longer than telogen in C57BL/6 mice.

| Compound | hair growth induction in vivo (FIG. 1) (follicles in telogen [1]) | Activity (improved hair growth by inducing anagen) (follicles in telogen [1]; dose 1%) | also measured |
| --- | --- | --- | --- |
| C#CCN(C)CCCOc1ccc(Cl)cc1Cl [Clorgiline] | induced significant hair growth | YES |  |
| C[C@]12CCC(=O)C[C@@H]1CC[C@@H]1[C@@H]2CC[C@]2(C)[C@@H](O)CC[C@@H]12 [DHT, dihydrotestosterone] |  |  | MAOB levels (MAOB; C57Bl/6 mice, 12.5 mg/day subcutaneous continuous release pellet): increased greater than two fold |
| NCCNC(=O)c1ccc(Cl)cn1 [Lazabemide] | not shown to induce hair growth alone |  |  |
| C#CCN(C)Cc1ccccc1 [Pargyline HCL] | induced significant hair growth | YES |  |
| NNCCc1ccccc1 [Phenelzine] | induced significant hair growth |  | Activity (improved hair growth by inducing anagen) (follicles in telogen [1]; dose 0.5%): YES |
| C#CCN[C@@H]1CCc2ccccc21 [Rasagiline mesylate] | Robust hair growth induction | YES |  |
| C#CCN(C)[C@H](C)Cc1ccccc1 [Selegiline Hydrochloride] | Robust hair growth induction | YES | timing of hair growth induction (follicles in telogen [2]; FIG. 2, Hydrochloride): induced hair regrowth significantly earlier; also recorded: initiated hair growth significantly sooner than treatment with vehicle; timing of hair growth induction (follicles in telogen [1]; Hydrochloride): induced hair regrowth significantly earlier; also recorded: initiated hair growth significantly sooner than treatment with vehicle |
| O=C(O)Cc1cc(I)c(Oc2ccc(O)c(I)c2)c(I)c1 [Triac, Triiodothyroacetic Acid] |  |  | timing of hair growth induction (follicles in telogen [2]; FIG. 2): hair growth was induced at the same time for both mouse strains; also recorded: induced hair growth simultaneously; timing of hair growth induction (follicles in telogen [1]): hair growth was induced at the same time for both mouse strains; also recorded: induced hair growth simultaneously; MAOB levels (MAOB; C3H mice, 0.06%): Reduced MAOB levels |
